Consider two substances from patent US20080070987A1, “META-XYLYLENEDIAMINE VANADATE SALTS” (priority 2006, published 2008).

Experiment [1] has as its system isolated mouse adipocytes. Kind of experiment: Glucose (2-deoxyglucose) transport in isolated mouse adipocytes. In kind it is cell-based, FVB mice. Conditions: 100 μM. The method, then:
Adipose cells from FVB mice were incubated for 45 minutes in basal conditions (Basal) or in the presence of 100 nM insulin (Ins), and different concentrations of hexaquis(benzylammonium) decavanadate (B6V10) in the absence or in the presence of 1 mM semicarbazide (SCZ) and thereafter, 2-DG transport was measured over 5 min.

For experiment [2], the system named is protein kinase B / insulin receptor phosphorylation. Kind of experiment: Intracellular insulin signalling in isolated rat adipocytes (protein kinase B and insulin receptor phosphorylation). In kind it is cell-based, Wistar rats. The method, then: Isolated fat cells were disrupted for total membrane preparation by hypo-osmotic lysis in a 20 mM HES buffer and an antiprotease and antiphosphatase cocktail as reported by Abella et al. (2003, Diabetes 52: 1004-1013). Protein concentrations were determined by the Bradford method (Bradford, 1976, Anal. Biochem. 72: 248-254) with gamma-globulin as protein concentration standard. Immunoprecipitation and immunoblot assays were performed as previously described by Abella et al. (2004, Diabetologia 47: 429-438) with the use of a monoclonal antiphosphotyrosine antibody for the immunoprecipitation and an anti-insulin receptor antibody for immunobloting, respectively. SDS-polyacrylamide gel electrophoresis was performed on membrane proteins following conventional procedures. Proteins were transferred to Immobilon and immunoblotting was performed as reported by Castello et al. (1994, J. Biol. Chem. 269: 5905-5912).
The mechanism of action of B6V10 was investigated in isolated rat adipocytes. Adipose cells from Wistar rats were incubated for different times in the presence of 25 μM hexaquis(benzylammonium) decavanadate (B6V10). Cells were also incubated in the presence of insulin (100 nM, 45 min), decavanadate (25 μM, 45 min) or semicarbazide (1 mM, 45 min). Subsequently, 2-deoxyglucose uptake (results shown in FIG. 7A), tyrosine phosphorylation of insulin receptor (FIG. 7B), phospho-Thr^308-protein kinase B (FIG. 7C) and phospho-Ser^473-protein kinase B (FIG. 7D) was measured. […] The phosphorylation of protein kinase B induced by B6V10 was parallel to activation of glucose transport (FIGS. 7C and 7D).
The effects of incubation with semicarbazide or phosphatidylinositol 3-kinase inhibitors were also investigated. Adipose cells were incubated with B6V10 (25 μM, 45 min) in the absence or presence of wortmannin (2 μM, 45 min), LY294002 (10 μM, 45 min) or semicarbazide (1 mM, 45 min) and thereafter 2-deoxyglucose uptake was determined during 5 min.

Another experiment has as its system isolated rat adipocytes. Kind of experiment: Glucose (2-deoxyglucose) transport in isolated rat adipocytes. The note with it: for effect of semicarbazide on the stimulation of glucose transport: 1 mM semicarbazide; for stimulation of glucose transport (2-DG uptake), in words: 45 min incubation; for stimulation of glucose transport compared with the combination of benzylamine and vanadate: combination 100 μM benzylamine and 100 μM vanadate. In kind it is cell-based, Wistar rats. The method, then: FIG. 1 is a graphical illustration of the hexaquis(benzylammonium) decavanadate effects on glucose transport in isolated rat adipocytes. In this Figure, V corresponds to the rate of 2-deoxyglucose transport (expressed relative to the basal rate), and the results are mean +standard error of the mean (SEM). The adipocytes were incubated in the absence of stimulants in the following conditions: basal (1); in the presence of 100 nM insulin (2); in the presence of hexaquis(benzylammonium) decavanadate at concentrations of 0.5 μM (3), 1 μM (4), 2.5 μM (5), 5 μM (6), 10 μM (7), 25 μM (8), 50 μM (9), and 100 μM (10). The cells were also incubated in the presence of the semicarbazide inhibitor (1 mM), and 10 μM hexaquis(benzylammonium) decavanadate (11), 25 μM of hexaquis(benzylammonium) decavanadate (12) or 50 μM hexaquis(benzylammonium) decavanadate (13). In parallel, the cells were incubated in presence of 100 μM of sodium vanadate and 100 μM of benzylamine, in the absence (14) or in the presence of 1 mM of semicarbazide (15).
FIG. 2 is a graphical illustration of the effects of hexaquis(benzylammonium) decavanadate, pentaquis(benzylammonium) decavanadate and tetraquis(benzylammonium) decavanadate on glucose transport in isolated rat adipocytes. V corresponds to the rate of 2-deoxyglucose uptake (expressed as relation with basal group), and the results are mean +standard error mean. The adipocytes were incubated in the absence of stimulants in the following conditions: basal (1); in the presence of 100 nM of insulin (2); in the presence of hexaquis(benzylammonium) decavanadate at concentrations of 10 μM (3) and 25 μM (4), pentaquis(benzylammonium) decavanadate at concentrations of 10 μM (8) and 25 μM (9), and tetraquis(benzylammonium) decavanadate at concentrations of 10 μM (11) and 25 μM (12). The cells were also incubated in the presence of the semicarbazide inhibitor (1 mM) and, 25 μM of hexaquis(benzylammonium) decavanadate (5), 25 μM of pentaquis(benzylammonium) decavanadate (10) or 25 μM of tetraquis(benzylammonium) decavanadate (13). In parallel, the cells were incubated in the presence of 100 μM of sodium vanadate (6) or in the presence of 250 μM of sodium vanadate (7).
Adipose cells from Wistar rats were incubated for 45 minutes in basal conditions (Basal) or in the presence of 100 nM insulin (Ins) and different concentrations of. hexaquis(benzylammonium) decavanadate (B6V10) in the absence or in the presence of 1 mM semicarbazide (SCZ). Subsequently, 2-DG transport was measured over a 5 min. interval.
The effects of the three tested compounds (B6V10, B5V10 and B4V10) were compared. Adipose cells from Wistar rats were incubated for 45 minutes in basal conditions (Basal) or in the presence of 100 nM insulin (Ins), and different concentrations of decavanadate (V10), hexaquis(benzylammonium) decavanadate (B6V10), pentaquis(benzylammonium) decavanadate (B5V10) or tetraquis(benzylammonium) decavanadate (B4V10) in the absence or in the presence of 1 mM semicarbazide (SCZ). 2-DG transport was measured over 5 min. intervals.
In additional experiments, compounds shown in FIG. 6A, 2-(4-fluoro-phenyl)ethylamine (compound A), 3-phenylpropylamine (compound B), 4-fluoro-benzylamine (compound C) and 4-phenylbutylamine (compound D) were assessed using the experimental methods set forth above for the capacity to stimulate 2-DG uptake in isolated rat adipocytes. Adipose cells from Wistar rats were incubated for 45 minutes in basal conditions (Basal) or in the presence of 100 nM insulin (Ins), and different concentrations of vanadium salts of 2-(4-fluoro-phenyl)-ethylamine (compound A), 3-phenyl-propylamine (compound B), 4-fluoro-benzylamine (compound C) and 4-phenyl-butylamine (compound D). 2-DG transport was measured over 5 min.
The effects of incubation with semicarbazide or phosphatidylinositol 3-kinase inhibitors were also investigated. […]

Setting [3] is: listed as hexaquis(benzylammonium) decavanadate.

Entries after “also recorded” stand apart in the source; their conditions may differ.

As to “hexaquis(benzylammonium) decavanadate [Example B6V10]”, the “stimulation of glucose transport (% increase)” value in experiment [1] came out at 93%. Besides, the “effect of semicarbazide on protein kinase B phosphorylation induced by the compound” value in experiment [2] (1 mM semicarbazide, 45 min) is “blocked by semicarbazide”. In addition, in experiment [2] (isolated rat adipocytes, 25 μM), the “earliest time at which protein kinase B phosphorylation was detectable” value is recorded as 2.5 min; the “phosphorylation (activation) of protein kinase B, in words” value was “rapidly stimulated protein kinase B”; the “tyrosine phosphorylation of insulin receptors” value is recorded as “undetectable”. In the experiment with isolated rat adipocytes, the “effect of semicarbazide on the stimulation of glucose transport” value is on record as “completely blocked by semicarbazide; also recorded: blocked in the presence of semicarbazide”; the “stimulation of glucose transport (2-DG uptake), in words” value was “concentration-dependent manner”; the “stimulation of glucose transport compared with the combination of benzylamine and vanadate” value is “greater stimulation”. In the experiment with isolated rat adipocytes (setting [3]), the “effect of semicarbazide on the stimulation of glucose transport” value is recorded as “completely blocked by semicarbazide”; the “stimulation of glucose transport (2-DG uptake), in words” value is reported as “pronounced stimulation on glucose transport”; the “stimulation of glucose transport compared with the combination of benzylamine and vanadate” value is “greater than that produced by the presence of benzylamine and vanadate in combination”. In the experiment on isolated rat adipocytes (FIG. 1), the “concentration from which stimulation of glucose transport is perceptible” value worked out at 0.5 µM and the “concentration of maximal effect on glucose transport” value came to 2.5 µM. Further, the EC50 in the experiment with isolated rat adipocytes (FIG. 1, read-out: concentration of semimaximal effect on glucose transport) is more than 1 µM. Moreover, the “maximal effect on glucose transport as % of the maximal stimulation caused by insulin” value in the experiment on isolated rat adipocytes (insulin 100 nM) came out at 85%.
As to “sodium decavanadate [Example V10, reference compound]”, in experiment [2] (isolated rat adipocytes, 25 μM), the “phosphorylation (activation) of protein kinase B, in words” value is listed as “not observed”. Further, the “stimulation of glucose transport, in words” value in the experiment with isolated rat adipocytes (concentrations ranging from 5 to 50 μM) was “did not stimulate glucose transport”.
